One molecule from publication PMC6014988, “Precision therapeutic targeting of human cancer cell motility” (Nature Communications, 2018) can be followed below.

Entries after “also recorded” stand apart in the source; their conditions may differ.

The test system of one assay is estrogen receptor (ER). Kind of assay: Induction of estrogen-responsive genes in MCF-7 cells. The class given is cell-based, human. On the procedure:
RNA was isolated and qRT-PCR was performed as described by us[43], analyzed by the 2^−ΔΔCt method, using primer/probes sets (ABI), HSP90α (Hs00743767_sH), HSP90β (Hs00427665_g1), trefoil factor 1 (TFF1; Hs00907239_m1), cathepsin D (CTSD; Hs00157205_m1), progesterone receptor (PGR; Hs01556702_m1), and GAPDH (Hs99999905_m1). Assays were repeated, each in replicates of N = 2. […]
panel. KBU2046 was submitted to the Developmental Therapeutics Program (DTP) of the US National Cancer Institute (NCI), underwent initial screening across the NCI 60 cell line panel per DTP protocol 1, and the resultant COMPARE diagram is depicted above. Based upon its lack of […]
Supplementary Figure 3. […] Estrogen […]
receptor positive MCF-7 cells were cultured under hormone free conditions transfected pERE-Luc or empty control vector, along with constitutive active β-gal, grown under estrogen-free conditions, and pre-treated for 24 hours with nanomolar concentrations of estradiol, or with micromolar concentrations of genistein or KBU2046, as indicated. Luciferase activity was measured, normalized to that of β-gal, and values expressed as the percent of untreated vector control cells. Values are the mean±SD of a single experiment, with similar results seen in a separate repeat experiment, both in replicates of N=2.
(also on this page, place not known: luciferase/B-gal activity, % untreated vector control) […]

In assay [1] the target is T1, Isovaleryl-CoA dehydrogenase (Homo sapiens, UniProt P26440).
T1 construct: purchased Invitrogen
Nature of the assay: ProtoArray binding, Isovaleryl-CoA dehydrogenase. Particulars: 10 fold excess free KBU2046. The method, then:
The ProtoArray® assay, using the Human Protein Microarray platform, was performed by Invitrogen. […]
followed by detection with FITC-streptavidin, and visualization by fluorescent microscopy (with equal exposure times). (d) Protein array hybridization. KBU2046-biotin was hybridized to ProtoArray® Human Protein Microarray’s at 0.5 and 10 µM with and without 10 fold excess free KBU2046. We first sought proteins that met the following criteria, and did so at both 0.5 and 10 µM concentrations of KBU2046-biotin (in the absence of free KBU2046): Z-Score greater than 2.5, Z-Factor greater than 0.5, CI P-value less than 0.05, negative control value <2,000 (relative fluorescence units; RFUs), and a signal/negative control signal of >10 and >5 for 10 µM and 0.5 µM conditions, respectively. This yielded 3 proteins, shown in table, for an initial hit rate of 0.03%. We then required free KBU2046 to inhibit binding by >75%. Of the two remaining candidates, we eliminated isovaleryl-CoA dehydrogenase (ICD). Its binding signal doubled on […]
suspected non-specific binding by the biotin-linker moiety. We deemed cysteine and glycine-rich protein 1 (CSRP1) our top priority protein, though its binding characteristics at 10 µM + free KBU2046 were similar to ICD, albeit not as extreme. We thus evaluated whether KBU2046- […]
There were two additional notable findings from protein array studies. […]

For another assay, the system named is PC3-M cells. Nature of the assay: Cell invasion of PC3-M cells with altered HSP90β. Format: cell-based, human. The method, then:
Fig. 4 KBU2046 decreases phosphorylation of HSP90β. a Probing for KBU2046-induced changes in protein phosphorylation. PC3-M or PC3 cells were pre-treated with 10 µM KBU2046 for 3 days, then with ±TGFβ and the resultant cell lysate probed for changes in protein phosphorylation with the KinomeView® assay. The depicted western blot utilizes KinomeView® phospho-motif antibody, BL4176; the blue arrow denotes an 83 kDa band whose phosphorylation is inhibited by KBU2046 (see Supplementary Fig. 10 for complete KinomeView® assay screening data). b Proteomic analysis. PC3 cells were pre-treated with KBU2046 or vehicle, then with TGFβ, proteins from the resultant cell lysate were immunoprecipitated with BL4176, and HSP90β was identified by LC-MS/MS analysis (see Supplementary Fig. 12 for expanded proteomic assay data). The phospho-motif recognized by the antibody is underlined; S*—denotes Ser226, whose phosphorylation is decreased by KBU2046. c, d The phospho-mimetic changes in HSP90β Ser^226 structure regulate human PCa cell invasion and KBU2046 efficacy. PC3-M cells were transfected with S226A-, S226D-, or WT-HSP90β, or empty vector (VC), treated with KBU2046 or vehicle, and cell invasion measured. Values are the mean ± SEM of a representative experiment of multiple experiments (all in replicates of N = 3); *denotes t-test P value <0.05 between bracketed conditions, or compared to VC […]
Boyden chamber cell invasion assays were performed as previously described by us[30], using either denatured collagen (BD Biosciences) or type IV human collagen (BD Biosciences), with all experiments repeated, each in N = 4 replicates. In some experiments, as indicated, cells were transfected with an expression plasmid, using Lipofectamine 2000™ (Invitrogen), or with siRNA, using DharmaFect Duo (Thermo Scientific) and co-transfected with β-Galactosidase (Plasmid pCMV•SPORT-βgal; Life Technology).
Supplementary Figure 13. Changes in HSP90β Ser226 structure as well as HSP90β expression regulate PCa cell invasion and KBU2046 efficacy. (a) Levels of HSP90β expression after transfection of cells. In manuscript Figs 4c and d, PC3-M cells were transfected with S226A-, S226D-, or WT-HSP90β, or empty vector (VC) and resultant effects upon cell invasion and KBU2046 efficacy measured. Depicted above are associated Western blots probing for HSP90β, FLAG (transfected HSP90β was FLAG-tagged) and GAPDH. (b-d) Knockdown of HSP90β decreases cell invasion and abrogates KBU2046 efficacy. PC3-M cells were transfected with siRNA to HSP90β (siHSP90b) or non-targeting siRNA (siCO). (b) The level of HSP90β (HSP90b) and HSP90α (HSP90a) transcript levels were measured by qRT/PCR, and expressed relative to that of GAPDH. (c) The level of HSP90β protein expression was measured by Western blot. (d) Cells were treated with KBU2046 (46) or vehicle control, and cell invasion measured. Values are the mean±SEM of a representative experiment of multiple experiments (all in replicates of N=3). *denotes t-test P value </= 0.05 compared to siCO.

T1 sequence (P26440 33-426): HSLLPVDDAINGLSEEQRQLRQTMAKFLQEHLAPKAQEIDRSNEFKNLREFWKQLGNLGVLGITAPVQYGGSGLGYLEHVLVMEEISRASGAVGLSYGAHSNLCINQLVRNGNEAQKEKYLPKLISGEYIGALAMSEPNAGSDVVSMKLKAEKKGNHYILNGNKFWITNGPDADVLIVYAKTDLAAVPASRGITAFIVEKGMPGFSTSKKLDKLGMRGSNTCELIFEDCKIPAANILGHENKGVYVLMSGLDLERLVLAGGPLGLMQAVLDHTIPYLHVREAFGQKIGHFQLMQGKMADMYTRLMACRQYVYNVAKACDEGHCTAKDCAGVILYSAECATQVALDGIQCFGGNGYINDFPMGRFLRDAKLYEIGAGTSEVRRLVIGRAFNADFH

Take `O=C1c2ccccc2OCC1c1ccc(F)cc1` (racemic) [KBU2046, (±)-3(4-fluorophenyl)chroman-4-one]: the “activation of estrogen-responsive genes” value in the assay on estrogen receptor (ER) is listed as “did not activate estrogen-responsive genes; also recorded: does not activate the estrogen receptor”. Also, the “% inhibition by competitor” value in assay [1] (0.5 uM KBU2046-biotin) is listed as 80%; in assay [1] (10 uM KBU2046-biotin), 12%. Further, the cell invasion result is recorded as “does not further inhibit cell invasion” with PC3-M cells ((S226A)-HSP90β transfected cells); “did not significantly inhibit cell invasion” in the assay with PC3-M cells ((S226D)-HSP90β transfected cells); “significantly inhibited invasion” in the assay on PC3-M cells (VC and WT-HSP90β cells); “significantly inhibits invasion” with PC3-M cells (VC cells). Besides, the anti-invasion efficacy result in the assay with PC3-M cells (siRNA-mediated HSP90β knockdown) was “abrogated KBU2046 efficacy”.
